Test results from patent publication US20060198900A1, “Bioactive Agent Compositions for Repair of Cell Injuries” (Nutritional Bioscience Limited, priority 2004, published 2006).
“Also recorded” adds a separate entry of the source.

Legend:
[1] = system: recurrent herpes simplex infection (cold sores); details: oral 600-1000 mg per day in two doses; increasing from 46 days; cited from earlier work
[2] = system: Caco2-BBe cells; details: relatively small amount, 1 mg protein/ml; cited from earlier work
[3] = system: indomethacin-induced rat gastric damaging model; test: Indomethacin-induced rat gastric damaging model; type: in vivo; details: 1% via gavage before indomethacin
[4] = system: human colonic cancer cell line HT-29; test: Cell restitution (migration) assay in wounded HT-29 monolayers; type: cell-based; details: 10 ug/ml, 8 hours after wounding
Protocol: Accordingly, the human colonic cancer cell line HT-29 was grown to confluence in six well plates in a solution of DMEM-containing glutamine and 10% fetal calf serum. The monolayers of the cells were then wounded by scraping a disposable pipette tip across the dishes, washed with fresh serum-free medium, and then cultured in a serum-free medium in the presence of 1 mg/ml, 2 mg/ml, and 5 mg/ml colostrum solutions. The rate of movement of the anterior edges of the wounded monolayer cells was then determined by taking serial photomicrographs at various times after wounding (i.e., 0, 4, 8, 12, and 24) hours, using an inverted Nikon TS100 microscope and a Nikon Coolpix 800 digital camera with 100-fold magnification. Identical regions were examined at each time point by premarking the base of the plates to facilitate alignment. […] Each wound was examined in at least three different regions, and expressed as mean and SEM of three separate experiments.
The next study analyzed the potential added benefit of using colostrum rather than milk based product. […] The distance migrated by the leading edge of the cells 8 hours after wounding was then assessed. […]
The next study analysed the potential added benefit of using licorice as a stimulant of restitution. […] The distance migrated by the leading edge of the cells 8 hours after wounding was then assessed. […]

**Q.** For Nc1nc2c(ncn2COCCO)c(=O)[nH]1 [acyclovir], which “mean time to recurrence of cold sores” value [1] is on record?
**A.** 118 days

**Q.** For O=c1c(-c2ccc(O)cc2)coc2cc(O)cc(O)c12 [genistein], which “growth of Caco2-BBe cells” value [2] is on record?
**A.** increase some parameters of growth

**Q.** With O=C([O-])O.[Na+] [sodium bicarbonate] as the compound, how does the “reduction of degree of gastric injury compared to saline control” value [3] read?
**A.** about 75%

**Q.** For “epidermal growth factor [EGF, peptide growth factor used as positive control]”, which “amount of migration of leading edge versus DMEM alone” value [4] is on record?
**A.** two-fold increase; also recorded: increased the amount of cell movement
